Drawing on patent US10710986B2, “PD-1/PD-L1 inhibitors” (Gilead Sciences, Inc., priority 2018, dated 2020), this text covers IC50 for 52 molecules.

In this test the target is PD-1/PD-L1 (Homo sapiens (Human), UniProt Q9NZQ7). The test is described as follows: PD-1/PD-L1 biochemical protein-protein interaction assay (ALPHA). As to conditions: 0.3 nM His tagged PD-L1, 2.5 nM biotinylated Fc-PD-1, 60 minutes at 25° C., read-out: IC50 PD-L1-PD1.

Molecules are shown by their SMILES.

Chain of PD-1/PD-L1 (Q9NZQ7 19-238): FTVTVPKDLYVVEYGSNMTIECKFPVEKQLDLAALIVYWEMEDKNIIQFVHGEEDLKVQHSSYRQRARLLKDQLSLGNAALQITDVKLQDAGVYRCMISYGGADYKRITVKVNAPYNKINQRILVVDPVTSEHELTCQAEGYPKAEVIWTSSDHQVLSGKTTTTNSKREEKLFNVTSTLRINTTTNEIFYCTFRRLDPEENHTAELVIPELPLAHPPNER

As to `COc1nc(-c2cccc(-c3cccc(-c4cnc(CN5CC(OC)C5)c(OC)n4)c3Cl)c2Cl)cnc1CN1CC(OC)C1` [compound 400], the half-maximal inhibitory concentration (IC50) stood at 0.173 nM.

For `COc1nc(-c2cccc(-c3cccc(-c4cnc(CN(C)C)c(OC)n4)c3Cl)c2Cl)cnc1CN(C)C` [compound 401], the IC50 turned out to be 0.295 nM.

For the molecule `CNCc1ncc(-c2cccc(-c3cccc(-c4cnc(CNC)c(OC)n4)c3Cl)c2Cl)nc1OC` [compound 402], the concentration for half-maximal inhibition (IC50) turned out to be 0.175 nM.

For the molecule `COc1nc(-c2cccc(-c3cccc(-c4cnc(CNC[C@@H]5CCC(=O)N5)c(OC)n4)c3Cl)c2Cl)cnc1CNCC1CC(=O)NC1=O` (stereo partly shown) [compound 403], the 50% inhibitory concentration (IC50) was determined as 0.07 nM.

In the case of `COc1nc(-c2cccc(-c3cccc(-c4cnc(CN5CCC(c6cnccn6)C5)c(OC)n4)c3Cl)c2Cl)cnc1CNC[C@@H]1CCC(=O)N1` (stereo partly shown) [compound 404], the IC50 was determined as 0.07 nM.

Turning to `COc1nc(-c2cccc(-c3cccc(-c4cnc(CN5CCC(c6cccnc6)C5)c(OC)n4)c3Cl)c2Cl)cnc1CNC[C@@H]1CCC(=O)N1` (stereo partly shown) [compound 405], the IC50 was 0.16 nM.

As to `COc1nc(-c2cccc(-c3cccc(-c4cnc(CN5CCC(c6ccccn6)C5)c(OC)n4)c3Cl)c2Cl)cnc1CNC[C@@H]1CCC(=O)N1` (stereo partly shown) [compound 406], the IC50 worked out at 0.28 nM.

As for `COc1nc(-c2cccc(-c3cccc(-c4cnc(CN5CCC(O)(CC#N)C5)c(OC)n4)c3Cl)c2Cl)cnc1CNC[C@@H]1CCC(=O)N1` (stereo partly shown) [compound 407], the IC50 is 0.186 nM.

Turning to `COc1nc(-c2cccc(-c3cccc(-c4cnc(CN5CCC(c6ncccn6)C5)c(OC)n4)c3Cl)c2Cl)cnc1CNC[C@@H]1CCC(=O)N1` (stereo partly shown) [compound 408], the half-maximal inhibitory concentration (IC50) amounted to 0.139 nM.

Consider `COc1nc(-c2cccc(-c3cccc(-c4cnc(CN5CCC(C6CCCO6)C5)c(OC)n4)c3Cl)c2Cl)cnc1CNC[C@@H]1CCC(=O)N1` (stereo partly shown) [compound 409], for which the concentration for half-maximal inhibition (IC50) was 0.124 nM.

On to `COc1nc(-c2cccc(-c3cccc(-c4cnc(CN5CCC(c6ccncc6)C5)c(OC)n4)c3Cl)c2Cl)cnc1CNC[C@@H]1CCC(=O)N1` (stereo partly shown) [compound 410], for which the 50% inhibitory concentration (IC50) was 0.316 nM.

Take `COc1nc(-c2cccc(-c3cccc(-c4cnc(CN5CCC(C6CCOC6)C5)c(OC)n4)c3Cl)c2Cl)cnc1CNC[C@@H]1CCC(=O)N1` (stereo partly shown) [compound 411]: the half-inhibitory concentration (IC50) amounted to 0.321 nM.

With `COc1nc(-c2cccc(-c3cccc(-c4cnc(CNC[C@@H]5CCC(=O)N5)c(OC)n4)c3Cl)c2Cl)cnc1CNCCc1cncc(O)c1` [compound 412], the IC50 stood at 0.187 nM.

In the case of `COc1nc(-c2cccc(-c3cccc(-c4cnc(CNC[C@@H]5CCC(=O)N5)c(OC)n4)c3Cl)c2Cl)cnc1CNCC(O)CN1CCCC1` (stereo partly shown) [compound 413], the IC50 came out at 0.162 nM.

Consider `COc1ccnc2c1CN(Cc1ncc(-c3cccc(-c4cccc(-c5cnc(CNC[C@@H]6CCC(=O)N6)c(OC)n5)c4Cl)c3Cl)nc1OC)C2` [compound 414], for which the IC50 was 0.559 nM.

On to `COc1nc(-c2cccc(-c3cccc(-c4cnc(CNC5CCN(C(=O)c6ccoc6)CC5)c(OC)n4)c3Cl)c2Cl)cnc1CNC[C@@H]1CCC(=O)N1` [compound 415], for which the concentration for half-maximal inhibition (IC50) was 0.195 nM.

Consider `COc1nc(-c2cccc(-c3cccc(-c4cnc(CNC5CCN(C)C(=O)C5)c(OC)n4)c3Cl)c2Cl)cnc1CNC[C@@H]1CCC(=O)N1` (stereo partly shown) [compound 416], for which the IC50 came out at 0.14 nM.

As for `COc1nc(-c2cccc(-c3cccc(-c4cnc(CNC[C@@H]5CCC(=O)N5)c(OC)n4)c3Cl)c2Cl)cnc1CNCCc1ccccn1` [compound 417], the half-inhibitory concentration (IC50) is 0.196 nM.

With `COc1nc(-c2cccc(-c3cccc(-c4cnc(CNC[C@@H]5CCC(=O)N5)c(OC)n4)c3Cl)c2Cl)cnc1CNCc1ccccn1` [compound 418], the half-inhibitory concentration (IC50) was found to be 0.219 nM.

As for `COc1nc(-c2cccc(-c3cccc(-c4cnc(CNC[C@@H]5CCC(=O)N5)c(OC)n4)c3Cl)c2Cl)cnc1CNCCCc1nc2ccccc2[nH]1` [compound 419], the IC50 is 0.542 nM.

As to `COc1nc(-c2cccc(-c3cccc(-c4cnc(CNC[C@@H]5CCC(=O)N5)c(OC)n4)c3Cl)c2Cl)cnc1CNCc1ncccn1` [compound 420], the IC50 was 0.449 nM.

For `COc1nc(-c2cccc(-c3cccc(-c4cnc(CNC5(c6ccccn6)CC5)c(OC)n4)c3Cl)c2Cl)cnc1CNC[C@@H]1CCC(=O)N1` [compound 421], the IC50 was determined as 0.603 nM.

As for `COc1nc(-c2cccc(-c3cccc(-c4cnc(CNC[C@@H]5CCC(=O)N5)c(OC)n4)c3Cl)c2Cl)cnc1CNCc1ccncc1` [compound 422], the IC50 is 0.554 nM.

With `COc1nc(-c2cccc(-c3cccc(-c4cnc(CN5C[C@H](O)C[C@H]5CO)c(OC)n4)c3Cl)c2Cl)cnc1CNC[C@@H]1CCC(=O)N1` [compound 423], the concentration for half-maximal inhibition (IC50) stood at 0.237 nM.

On to `COc1nc(-c2cccc(-c3cccc(-c4cnc(CNC5(c6cccnc6)CC5)c(OC)n4)c3Cl)c2Cl)cnc1CNC[C@@H]1CCC(=O)N1` [compound 424], for which the 50% inhibitory concentration (IC50) came out at 0.617 nM.

As to `COc1nc(-c2cccc(-c3cccc(-c4cnc(CNC[C@@H]5CCC(=O)N5)c(OC)n4)c3Cl)c2Cl)cnc1CNCc1cccnc1` [compound 425], the IC50 is 0.414 nM.

As to `COc1nc(-c2cccc(-c3cccc(-c4cnc(CNCC5(O)CC5)c(OC)n4)c3Cl)c2Cl)cnc1CNC[C@@H]1CCC(=O)N1` [compound 426], the IC50 amounted to 0.273 nM.

On to `COc1nc(-c2cccc(-c3cccc(-c4cnc(CN5CC[C@@H](OC)C5)c(OC)n4)c3Cl)c2Cl)cnc1CNC[C@@H]1CCC(=O)N1` [compound 427], for which the IC50 came out at 0.136 nM.

`COc1nc(-c2cccc(-c3cccc(-c4cnc(CNC(CO)(CO)CO)c(OC)n4)c3Cl)c2Cl)cnc1CNC[C@@H]1CCC(=O)N1` [compound 428]: the IC50 worked out at 0.272 nM.

In the case of `COc1nc(-c2cccc(-c3cccc(-c4cnc(CNCC5(C#N)CC5)c(OC)n4)c3Cl)c2Cl)cnc1CNC[C@@H]1CCC(=O)N1` [compound 429], the half-maximal inhibitory concentration (IC50) amounted to 0.349 nM.

Take `COc1nc(-c2cccc(-c3cccc(-c4cnc(CN5CC[C@H](OC)C5)c(OC)n4)c3Cl)c2Cl)cnc1CNC[C@@H]1CCC(=O)N1` [compound 430]: the half-inhibitory concentration (IC50) is 0.071 nM.

Regarding `COc1nc(-c2cccc(-c3cccc(-c4cnc(CN5CC[C@H](O)C5)c(OC)n4)c3Cl)c2Cl)cnc1CNC[C@@H]1CCC(=O)N1` [compound 431], the IC50 was determined as 0.124 nM.

Turning to `COc1nc(-c2cccc(-c3cccc(-c4cnc(CN[C@H]5C[C@](O)(CF)C5)c(OC)n4)c3Cl)c2Cl)cnc1CNC[C@@H]1CCC(=O)N1` [compound 432], the concentration for half-maximal inhibition (IC50) worked out at 0.084 nM.

`COc1nc(-c2cccc(-c3cccc(-c4cnc(CNC[C@@H]5CCC(=O)N5)c(OC)n4)c3Cl)c2Cl)cnc1CNCC1OCCO1` [compound 433]: the half-inhibitory concentration (IC50) stood at 0.259 nM.

As for `COc1nc(-c2cccc(-c3cccc(-c4cnc(CNCC[C@@H]5CCC(=O)N5)c(OC)n4)c3Cl)c2Cl)cnc1CNCC[C@@H]1CCC(=O)N1` [compound 434], the IC50 turned out to be 0.064 nM.

Turning to `COc1nc(-c2cccc(-c3cccc(-c4cnc(CNC[C@@H]5CCC(=O)N5)c(OC)n4)c3Cl)c2Cl)cnc1CNC[C@@H]1CNC(=O)C1` [compound 435], the concentration for half-maximal inhibition (IC50) stood at 0.064 nM.

In the case of `COc1nc(-c2cccc(-c3cccc(-c4cnc(CN)c(OC)n4)c3Cl)c2Cl)ccc1CN` [compound 436], the IC50 came to 5.46 nM.

In the case of `COc1nc(-c2cccc(-c3cccc(-c4cnc(CN5CC6(CNC(=O)C6)C5)c(OC)n4)c3Cl)c2Cl)ccc1CN1CC2(CNC(=O)C2)C1` [compound 437], the IC50 was found to be 0.086 nM.

With `COc1nc(-c2cccc(-c3cccc(-c4cnc(CN5CC(OC)C5)c(OC)n4)c3Cl)c2Cl)ccc1CN1CC(OC)C1` [compound 438, 5-(2,2′-dichloro-3′-(6-methoxy-5-((3-methoxyazetidin-1-yl)methyl)pyridin-2-yl)-[1,1′-biphenyl]-3-yl)-3-methoxy-2-((3-methoxyazetidin-1-yl)methyl)pyrazine], the half-maximal inhibitory concentration (IC50) turned out to be 1.34 nM.

`COc1nc(-c2cccc(-c3cccc(-c4cnc(CN5CC(O)C5)c(OC)n4)c3Cl)c2Cl)ccc1CN1CC(O)C1` [compound 439]: the half-inhibitory concentration (IC50) is 0.646 nM.

For `COc1nc(-c2cccc(-c3cccc(-c4cnc(CNC[C@@H]5CCC(=O)N5)cn4)c3Cl)c2Cl)ccc1CNC[C@@H]1CCC(=O)N1` [compound 440], the IC50 amounted to 1.87 nM.

In the case of `COc1nc(-c2cccc(-c3cccc(-c4cnc(CN5CCC(c6cn[nH]c6)C5)c(OC)n4)c3Cl)c2Cl)cnc1CNC[C@@H]1CCC(=O)N1` (stereo partly shown) [compound 441], the IC50 came to 0.064 nM.

On to `COc1nc(-c2cccc(-c3cccc(-c4cnc(CN5CCC(C)(CO)C5)c(OC)n4)c3Cl)c2Cl)cnc1CNC[C@@H]1CCC(=O)N1` (stereo partly shown) [compound 442], for which the IC50 came out at 0.146 nM.

For the molecule `COc1nc(-c2cccc(-c3cccc(-c4cnc(CN5CCC(C)(OC)C5)c(OC)n4)c3Cl)c2Cl)cnc1CNC[C@@H]1CCC(=O)N1` (stereo partly shown) [compound 443], the IC50 worked out at 0.246 nM.

As for `COc1nc(-c2cccc(-c3cccc(-c4cnc(CN5CC6(CNC(=O)C6)C5)c(OC)n4)c3Cl)c2Cl)cnc1CN1CC(C)(O)C1` [compound 444], the IC50 is 0.074 nM.

On to `COc1nc(-c2cccc(-c3cccc(-c4cnc(CN5CC6(CCC(=O)N6)C5)c(OC)n4)c3Cl)c2Cl)cnc1CN1CC(C)(O)C1` [compound 445], for which the IC50 came to 0.069 nM.

In the case of `COc1nc(-c2cccc(-c3cccc(-c4cnc(CN5CC(C)(O)C5)c(OC)n4)c3Cl)c2Cl)cnc1CNC[C@H]1CCC(=O)N1` [compound 446], the IC50 was 0.138 nM.

`COc1nc(-c2cccc(-c3cccc(-c4cnc(CN5CC6(C5)CN(C(C)=O)C6)c(OC)n4)c3Cl)c2Cl)cnc1CN1CC(C)(O)C1` [compound 447]: the IC50 amounted to 0.064 nM.

As for `COc1nc(-c2cccc(-c3cccc(-c4cnc(CN5CC(C)(O)C5)c(OC)n4)c3Cl)c2Cl)cnc1CN1CC[C@@H](CO)C1` [compound 448], the half-inhibitory concentration (IC50) is 0.064 nM.

Take `COc1nc(-c2cccc(-c3cccc(-c4cnc(CN5CC(C)(O)C5)c(OC)n4)c3Cl)c2Cl)cnc1CNCCO` [compound 449]: the IC50 came out at 0.285 nM.

`COc1nc(-c2cccc(-c3cccc(-c4cnc5c(CN6CC7(CCC(=O)N7)C6)cn(C)c5c4)c3Cl)c2Cl)cnc1CN1CC2(CCC(=O)N2)C1` [compound 450]: the half-maximal inhibitory concentration (IC50) was 0.064 nM.

With `COc1nc(-c2cccc(-c3cccc(-c4cnc5c(CN6CC7(C6)CN(C(C)=O)C7)cn(C)c5c4)c3Cl)c2Cl)cnc1CN1CC2(C1)CN(C(C)=O)C2` [compound 451], the IC50 is 0.101 nM.

For orientation: IC50 means the concentration at which inhibition is half-maximal.
